Our source for the IC50 values is US20110201628A1, “HETEROCYCLIC JAK KINASE INHIBITORS” (priority 2008, published 2011).

The term IC50 denotes the concentration that inhibits the measured activity by half.

The target of one experiment is T1, N-terminal GST-tagged, recombinant, human JAK2 (amino acids 831-1132) (Homo sapiens, UniProt O60674).
T1 construct: human JAK2 (amino acids 831-1132, PLAZA database pAZB0359); GST (N); host or cells: insect cells
T1 sequence (O60674 831-1132): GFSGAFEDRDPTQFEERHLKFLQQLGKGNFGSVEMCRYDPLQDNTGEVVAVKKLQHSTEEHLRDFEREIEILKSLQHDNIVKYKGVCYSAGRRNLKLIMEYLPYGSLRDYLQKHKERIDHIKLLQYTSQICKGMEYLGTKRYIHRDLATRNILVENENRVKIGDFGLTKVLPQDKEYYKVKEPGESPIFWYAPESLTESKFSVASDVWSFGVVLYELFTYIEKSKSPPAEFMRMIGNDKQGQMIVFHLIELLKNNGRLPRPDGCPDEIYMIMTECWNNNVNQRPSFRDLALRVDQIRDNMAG
In words: JAK2 mobility shift assay on Caliper LC3000 (Method 2). The following applies: 0.3 nM JAK2 enzyme, 5 mM ATP, 1.5 μM SRCtide, 90 minutes room temperature. Format: biochemical. As to the method:
Janus kinase 2 (JAK2) activity was also determined by measuring the kinase's ability to phosphorylate a tyrosine residue within a peptide substrate using a mobility shift assay on a Caliper LC3000 reader (Caliper, Hopkinton, Mass.), which measures fluorescence of the phosphorylated and unphosphorylated substrate and calculates a ratiometric value to determine percent turnover.
To measure JAK2 kinase activity, an in-house purified enzyme was used. […] After incubation of the kinase with a FAM labeled SRCtide substrate, adenosine triphosphate (ATP), and MgCl2 for 90 minutes at room temperature, the kinase reaction was stopped by the addition of 36 mM ethylenediaminetetraacetic acid (EDTA). The reaction was performed in 384 well microtitre plates and the reaction products were detected using the Caliper LC3000 Reader.
As for `CC(Nc1nc(Nc2cn(C)cn2)c2ccc(C(F)(F)F)nc2n1)c1ncc(F)cc1F` (racemic) [Example 33, N^2-[1-(3,5-Difluoropyridin-2-yl)ethyl]-N^4-(1-methyl-1H-imidazol-4-yl)-7-(trifluoromethyl)pyrido[2,3-d]pyrimidine-2,4-diamine], the half-maximal inhibitory concentration (IC50) was 0.026 µM.
Regarding `COc1cnc(C(C)Nc2nc(Nc3cn(C)cn3)c3cc[nH]c3n2)nc1` (single isomer, unassigned) [Example 27(a), N^2-[1-(5-Methoxypyrimidin-2-yl)ethyl]-N^4-(1-methyl-1H-imidazol-4-yl)-7H-pyrrolo[2,3-d]pyrimidine-2,4-diamine], the IC50 turned out to be 17.6 µM.
`CCn1ncc2c(Nc3cn(C)cn3)nc(NC(C)c3ncc(F)cn3)nc21` (single isomer, unassigned) [Example 9(b), 1-Ethyl-N^6-[1-(5-fluoropyrimidin-2-yl)ethyl]-N^4-(1-methyl-1H-imidazol-4-yl)-1H-pyrazolo[3,4-d]pyrimidine-4,6-diamine]: the IC50 worked out at 0.04 µM.
The same measure, in the same setting: next, `CC(Nc1nc(Nc2cn(C)cn2)c2ccn(CCF)c2n1)c1ncc(F)cn1` (single isomer, unassigned) [Example 22(b), 7-(2-Fluoroethyl)-N^2-[1-(5-fluoropyrimidin-2-yl)ethyl]-N^4-(1-methyl-1H-imidazol-4-yl)-7H-pyrrolo[2,3-d]pyrimidine-2,4-diamine]: 0.007 µM; `CC(Nc1nc(Nc2cn(C)cn2)c2ccn(CCF)c2n1)c1ncc(F)cn1` (single isomer, unassigned) [Example 22(a), 7-(2-Fluoroethyl)-N^2-[1-(5-fluoropyrimidin-2-yl)ethyl]-N^4-(1-methyl-1H-imidazol-4-yl)-7H-pyrrolo[2,3-d]pyrimidine-2,4-diamine]: 2.32 µM.
As for `C[C@H](Nc1nc(Nc2cn(C)cn2)c2ccc(C(F)(F)F)nc2n1)c1ncc(F)cn1` [Example 32, N^2-[(1S)-1-(5-Fluoropyrimidin-2-yl)ethyl]-N^4-(1-methyl-1H-imidazol-4-yl)-7-(trifluoromethyl)pyrido[2,3-d]pyrimidine-2,4-diamine], the 50% inhibitory concentration (IC50) came to 0.035 µM.
The same measure, in the same setting: the value for `CC(Nc1nc(Nc2cn(C)cn2)c2ccn(C3CC3)c2n1)c1ncc(F)cn1` (single isomer, unassigned) [Example 24(b), 7-Cyclopropyl-N^2-[1-(5-fluoropyrimidin-2-yl)ethyl]-N^4-(1-methyl-1H-imidazol-4-yl)-7H-pyrrolo[2,3-d]pyrimidine-2,4-diamine] was 0.027 µM; that for `COc1cnc(C(C)Nc2nc(Nc3cn(C)cn3)c3cc[nH]c3n2)nc1` (racemic) [Example 27, N^2-[1-(5-Methoxypyrimidin-2-yl)ethyl]-N^4-(1-methyl-1H-imidazol-4-yl)-7H-pyrrolo[2,3-d]pyrimidine-2,4-diamine] was 0.27 µM; that for `CC(Nc1nc(Nc2cn(C)cn2)c2cc(F)cnc2n1)c1ncc(F)cc1F` (single isomer, unassigned) [Example 31(a), N^2-[1-(3,5-Difluoropyridin-2-yl)ethyl]-6-fluoro-N^4-(1-methyl-1H-imidazol-4-yl)pyrido[2,3-d]pyrimidine-2,4-diamine] was 0.08 µM.

The next experiment deals with T2, C-terminal His6-tagged, recombinant, human JAK2, amino acids 808-end (Homo sapiens, UniProt O60674).
T2 construct: His6 (C); purchased Upstate Biotechnology MA; host or cells: baculovirus in Sf21 cells
T2 sequence (O60674 808-1132 limits assumed): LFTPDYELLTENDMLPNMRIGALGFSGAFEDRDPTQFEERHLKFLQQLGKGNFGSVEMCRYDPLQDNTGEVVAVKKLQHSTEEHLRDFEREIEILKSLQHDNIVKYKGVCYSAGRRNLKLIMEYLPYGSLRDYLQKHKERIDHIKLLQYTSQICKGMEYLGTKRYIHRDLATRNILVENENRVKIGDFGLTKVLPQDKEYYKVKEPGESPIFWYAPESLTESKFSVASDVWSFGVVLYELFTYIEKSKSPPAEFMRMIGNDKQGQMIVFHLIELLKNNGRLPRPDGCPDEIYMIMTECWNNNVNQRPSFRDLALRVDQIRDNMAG
Kind of experiment: JAK2 kinase Alphascreen assay (Method 1). The experiment is classed as biochemical. The note with it: Alphascreen, 150 pM JAK2 enzyme, 5 mM ATP, 80 nM Tyk2 peptide, 60 minutes room temperature; read-out: IC50 Assay (Method 1). As to the method: To measure JAK2 kinase activity, a commercially available purified enzyme may be used. […] After incubation of the kinase with a biotinylated substrate and adenosine triphosphate (ATP) for 60 minutes at room temperature, the kinase reaction may be stopped by the addition of 30 mM ethylenediaminetetraacetic acid (EDTA). The reaction may be performed in 384 well microtitre plates and the reaction products may be detected with the addition of streptavidin coated Donor Beads and phosphotyrosine-specific antibodies coated Acceptor Beads using the EnVision Multilabel Plate Reader after an overnight incubation at room temperature. “Tween 20” is a registered trademark of ICI Americas, Inc.
(Bead proximity is the source of the signal in Alpha formats.)
Take `CC(Nc1nc(Nc2cn(C)cn2)c2ccc(N3CCOCC3)nc2n1)c1ncc(F)cc1F` (single isomer, unassigned) [Example 40(a), N^2-[1-(3,5-Difluoropyridin-2-yl)ethyl]-N^4-(1-methyl-1H-imidazol-4-yl)-7-morpholin-4-ylpyrido[2,3-d]pyrimidine-2,4-diamine]: the half-maximal inhibitory concentration (IC50) was found to be 0.49 µM.
Regarding `CC(Nc1nc(Nc2cn(C)cn2)c2ccccc2n1)c1ncc(F)cn1` (single isomer, unassigned) [Example 45(b), N^2-[1-(5-Fluoropyrimidin-2-yl)ethyl]-N^4-(1-methyl-1H-imidazol-4-yl)quinazoline-2,4-diamine], the half-inhibitory concentration (IC50) amounted to 0.003 µM.
`CC(Nc1nc(Nc2cn(C)cn2)c2cccnc2n1)c1ncc(F)cc1F` (single isomer, unassigned) [Example 12(a), N^2-[1-(3,5-Difluoropyridin-2-yl)ethyl]-N^4-(1-methyl-1H-imidazol-4-yl)pyrido[2,3-d]pyrimidine-2,4-diamine]: the IC50 is less than 0.003 µM.
Take `CC(Nc1nc(Nc2cn(C)cn2)c2ccc(O)nc2n1)c1ncc(F)cc1F` (racemic) [Example 35, 2-{[1-(3,5-Difluoropyridin-2-yl)ethyl]amino}-4-[(1-methyl-1H-imidazol-4-yl)amino]pyrido[2,3-d]pyrimidin-7-ol]: the half-maximal inhibitory concentration (IC50) worked out at 0.003 µM.
Same read-out and setting: the value for `CC(Nc1nc(Nc2cn(C)cn2)c2cnn(C)c2n1)c1ncc(F)cc1F` (single isomer, unassigned) [Example 14(b), N^6-[1-(3,5-Difluoropyridin-2-yl)ethyl]-1-methyl-N^4-(1-methyl-1H-imidazol-4-yl)-1H-pyrazolo[3,4-d]pyrimidine-4,6-diamine] was less than 0.003 µM; that for `C[C@H](Nc1nc(Nc2cn(C)cn2)c2ccc(Cl)nc2n1)c1ncc(F)cn1` [Example 42, 7-Chloro-N^2-[(1S)-1-(5-fluoropyrimidin-2-yl)ethyl]-N^4-(1-methyl-1H-imidazol-4-yl)pyrido[2,3-d]pyrimidine-2,4-diamine] was less than 0.003 µM.
With `CC(Nc1nc2c(c(Nc3cn(C)cn3)n1)CNCC2)c1ncc(F)cn1` (single isomer, unassigned) [17(b), N^2-[1-(5-Fluoropyrimidin-2-yl)ethyl]-N^4-(1-methyl-1H-imidazol-4-yl)-5,6,7,8-tetrahydropyrido[4,3-d]pyrimidine-2,4-diamine], the 50% inhibitory concentration (IC50) was 2 µM.
`C[C@H](Nc1nc(Nc2cn(C)cn2)c2cnn(CCO)c2n1)c1ncc(F)cn1` [Example 15, 2-(6-{[(1S)-1-(5-Fluoropyrimidin-2-yl)ethyl]amino}-4-[(1-methyl-1H-imidazol-4-yl)amino]-1H-pyrazolo[3,4-d]pyrimidin-1-yl)ethanol]: the IC50 came to 0.003 µM.
`CC(Nc1nc2c(c(Nc3cn(C)cn3)n1)CNC2)c1ncc(F)cn1` (single isomer, unassigned) [Example 18(a), N^2-[1-(5-Fluoropyrimidin-2-yl)ethyl]-N^4-(1-methyl-1H-imidazol-4-yl)-6,7-dihydro-5H-pyrrolo[3,4-d]pyrimidine-2,4-diamine]: the IC50 is 4.3 µM.
On the same count and under the same terms, next, `CC(Nc1nc(Nc2cn(C)cn2)c2ccc(Cl)nc2n1)c1ncc(F)cc1F` (racemic) [Example 44, 7-Chloro-N^2-[1-(3,5-difluoropyridin-2-yl)ethyl]-N^4-(1-methyl-1H-imidazol-4-yl)pyrido[2,3-d]pyrimidine-2,4-diamine]: 0.003 µM; `C[C@H](Nc1nc(Nc2cn(C)cn2)c2cccnc2n1)c1ncc(F)cn1` [Example 16, N^2-[(1S)-1-(5-Fluoropyrimidin-2-yl)ethyl]-N^4-(1-methyl-1H-imidazol-4-yl)pyrido[2,3-d]pyrimidine-2,4-diamine]: less than 0.003 µM.
The same measure, in the same setting: the value for `CC(Nc1nc(Nc2cn(C)cn2)c2cccnc2n1)c1ncc(F)cc1F` (single isomer, unassigned) [Example 12(b), N^2-[1-(3,5-Difluoropyridin-2-yl)ethyl]-N^4-(1-methyl-1H-imidazol-4-yl)pyrido[2,3-d]pyrimidine-2,4-diamine] was 0.47 µM.
Same read-out and setting: next, `C[C@H](Nc1nc(Nc2cn(C)cn2)c2ccc(NC3CC3)nc2n1)c1ncc(F)cn1` [Example 36, N^7-Cyclopropyl-N^2-[(1S)-1-(5-fluoropyrimidin-2-yl)ethyl]-N^4-(1-methyl-1H-imidazol-4-yl)pyrido[2,3-d]pyrimidine-2,4,7-triamine]: 0.003 µM; `CC(Nc1nc(Nc2cn(C)cn2)c2ccsc2n1)c1ncc(F)cn1` (single isomer, unassigned) [Example 1(b), N^2-[1-(5-Fluoropyrimidin-2-yl)ethyl]-N^4-(1-methyl-1H-imidazol-4-yl)thieno[2,3-d]pyrimidine-2,4-diamine]: less than 0.003 µM; `COCC(Nc1nc(Nc2cn(C)cn2)c2cnn(C)c2n1)c1ncc(F)cc1F` (single isomer, unassigned) [Example 13(a)]: 3.24 µM.
Regarding `CC(Nc1nc(Nc2cn(C)cn2)c2ccncc2n1)c1ncc(F)cc1F` (single isomer, unassigned) [Example 43(b), N^2-[1-(3,5-Difluoropyridin-2-yl)ethyl]-N^4-(1-methyl-1H-imidazol-4-yl)pyrido[3,4-d]pyrimidine-2,4-diamine], the IC50 came to 1.18 µM.
On the same count and under the same terms, next, `COc1ccc2c(Nc3cn(C)cn3)nc(N[C@@H](C)c3ncc(F)cn3)nc2c1` [Example 30, N^2-[(1S)-1-(5-Fluoropyrimidin-2-yl)ethyl]-7-methoxy-N^4-(1-methyl-1H-imidazol-4-yl)quinazoline-2,4-diamine]: 0.004 µM.
